# Experimental data: publication PMC4894499 (Journal of pharmaceutical sciences, 2016)
# Key:
# [1] = system: rat SCH; conditions: cited from earlier work
# [2] = system: human SCH; conditions: cited from earlier work
# [3] = system: P-gp; conditions: human SCH, treatment for 3 days; cited from earlier work
# [4] = system: human SCH; assay: Intracellular bile acid concentrations by LC-MS/MS in human SCH; format: in vitro ADME; conditions: LCA-treated SCH
# [5] = system: human SCH; conditions: cited from earlier work; for Effect on total (cell + bile) and cellular accumulation of TCA: concentration-dependent
# [6] = system: human SCH; conditions: fold greater; cited from earlier work
# [7] = system: human SCH; conditions: cited from earlier work; remark: listed apart in the source
# [8] = system: human SCH; assay: Bile acid toxicity: LDH release in human SCH; format: cell-based; conditions: human SCH, 0 – 0.2 mM LCA, 6, 12, 24 hr
# [9] = Bile acid toxicity: LDH release in rat SCH; format: cell-based; conditions: rat, sandwich-cultured hepatocytes (SCH)
# [10] = system: rat SCH; assay: Bile acid toxicity: LDH release in rat SCH; format: cell-based; conditions: rat SCH, 0 – 0.2 mM LCA, 6, 12, 24 hr
# [11] = system: human SCH; assay: Bile acid toxicity: intracellular ATP; format: cell-based; conditions: human SCH, 0 – 0.2 mM LCA, 6, 12, 24 hr
# [12] = Bile acid toxicity: intracellular ATP; format: cell-based, human; conditions: human, sandwich-cultured hepatocytes (SCH)
# [13] = Bile acid toxicity: intracellular ATP; format: cell-based, rat; conditions: rat, sandwich-cultured hepatocytes (SCH)
# [14] = system: rat SCH; assay: Bile acid toxicity: intracellular ATP; format: cell-based; conditions: rat SCH, 0 – 0.2 mM LCA, 6, 12, 24 hr
# [15] = system: human SCH; conditions: cited from earlier work; remark: listed apart in the source
# [16] = system: CYP3A4 and UGT1A1; conditions: human SCH; cited from earlier work
# [17] = system: rat SCH; conditions: cited from earlier work; remark: listed apart in the source
# [18] = system: rat SCH
# [19] = Bile acid toxicity: LDH release in human SCH; format: cell-based; conditions: human, sandwich-cultured hepatocytes (SCH)
smiles,measurement,setting,value
Cc1cccc(C)c1OCC(=O)N[C@@H](Cc1ccccc1)[C@@H](O)C[C@H](Cc1ccccc1)NC(=O)[C@H](C(C)C)N1CCCNC1=O [lopinavir],"Effect on TCA biliary excretion (BEI and CLb, app, in vitro)",[1],significantly reduced
same,Effect on intracellular accumulation of TCA,[1],increased
COc1ccc(Cl)cc1C(=O)NCCc1ccc(S(=O)(=O)NC(=O)NC2CCCCC2)cc1 [glyburide],Effect on canalicular efflux of TCA,[2],minimal effects
CO[C@H]1/C=C/O[C@@]2(C)Oc3c(C)c(O)c4c(O)c(c(/C=N/N5CCN(C)CC5)c(O)c4c3C2=O)NC(=O)/C(C)=C\C=C\[C@H](C)[C@H](O)[C@@H](C)[C@@H](O)[C@@H](C)[C@H](OC(C)=O)[C@@H]1C [rifampicin],Effect on BEI of digoxin,[3],increase
"C[C@H](CCC(=O)NCC(=O)O)[C@H]1CC[C@H]2[C@@H]3CC[C@@H]4C[C@H](O)CC[C@]4(C)[C@H]3CC[C@]12C [GLCA, glycolithocholic acid]",Intracellular concentration in human SCH compared with rat SCH,[4],comparable
Cc1cc2c(cc1CC(=O)c1sccc1S(=O)(=O)Nc1onc(C)c1Cl)OCO2 [sitaxsentan],Effect on sodium-dependent TCA uptake,[5],significantly inhibited
same,Hepatocyte concentration relative to medium concentration,[6],40 fold
COC(=O)C1=C(C)NC(C)=C(C(=O)OC(C)C)C1c1cccc2nonc12 (stereo not shown) [isradipine],Effect on canalicular efflux of TCA,[2],minimal effects
CC(C)CN(C[C@@H](O)[C@H](Cc1ccccc1)NC(=O)O[C@H]1CO[C@H]2OCC[C@H]21)S(=O)(=O)c1ccc(N)cc1 [darunavir],Effect on CGamF accumulation,[7],potently inhibited
CCCC1O[C@@H]2C[C@H]3[C@@H]4CCC5=CC(=O)C=C[C@]5(C)[C@H]4[C@@H](O)C[C@]3(C)[C@]2(C(=O)CO)O1 (stereo partly shown) [budesonide],Effect on canalicular efflux of TCA,[2],minimal effects
"C[C@H](CCC(=O)O)[C@H]1CC[C@H]2[C@@H]3CC[C@@H]4C[C@H](O)CC[C@]4(C)[C@H]3CC[C@]12C [LCA, lithocholic acid]",LDH leakage,[8],minimal
same,CC50 at 24 h,[9],146 µM
same,LDH leakage,[10],increase
same,Intracellular concentration in human SCH compared with rat SCH,[4],comparable
same,Effect on cellular ATP,[11],delayed decrease
same,CC50 at 24 h,[12],155 µM
same,CC50 at 24 h,[13],147 µM
same,Effect on cellular ATP,[14],concentration-dependent decrease
CC(C)c1nc(CN(C)C(=O)N[C@H](C(=O)N[C@@H](Cc2ccccc2)C[C@H](O)[C@H](Cc2ccccc2)NC(=O)OCc2cncs2)C(C)C)cs1 [ritonavir],Effect on 99mTc–mebrofenin uptake,[15],decreased
same,Effect on BEI of 99mTc–mebrofenin,[15],without changing
same,"Effect on TCA biliary excretion (BEI and CLb, app, in vitro)",[1],significantly reduced
same,Effect on intracellular accumulation of TCA,[1],increased
same,Effect on canalicular efflux of TCA,[2],significantly reduced
COC(=O)N[C@H](C(=O)N[C@@H](Cc1ccccc1)[C@@H](O)CN(Cc1ccc(-c2ccccn2)cc1)NC(=O)[C@@H](NC(=O)OC)C(C)(C)C)C(C)(C)C [atazanavir],Effect on CGamF accumulation,[7],potently inhibited
CO[C@H]1/C=C/O[C@@]2(C)Oc3c(C)c(O)c4c(O)c(cc(O)c4c3C2=O)NC(=O)/C(C)=C\C=C\[C@H](C)[C@H](O)[C@@H](C)[C@@H](O)[C@@H](C)[C@H](OC(C)=O)[C@@H]1C [rifamycin SV],Effect on intracellular accumulation of buprenorphine and midazolam,[16],increased
"C[C@H](CCC(=O)NCCS(=O)(=O)O)[C@H]1CC[C@H]2[C@@H]3CC[C@@H]4C[C@H](O)CC[C@]4(C)[C@H]3CC[C@]12C [TLCA, taurolithocholic acid]","Intracellular concentration in human SCH relative to rat SCH, fold lower",[4],~ 100 fold
CN(CCOc1ccc(CC2SC(=O)NC2=O)cc1)c1ccccn1 (stereo not shown) [rosiglitazone],Effect on canalicular efflux of TCA,[2],significantly reduced
CCCNS(=O)(=O)Nc1ncnc(OCCOc2ncc(Br)cn2)c1-c1ccc(Br)cc1 [macitentan],Effect on BEI and apparent biliary clearance of TCA (TCA biliary excretion),[5],significantly decreased
same,Effect on total (cell + bile) and cellular accumulation of TCA,[5],significantly decreased
same,Hepatocyte concentration relative to medium concentration,[6],about 100 fold
COc1ccccc1Oc1c(NS(=O)(=O)c2ccc(C(C)(C)C)cc2)nc(-c2ncccn2)nc1OCCO [bosentan],Effect on BEI and apparent biliary clearance of TCA (TCA biliary excretion),[5],significantly decreased
same,Effect on sodium-dependent TCA uptake,[5],significantly inhibited
same,Effect on total (cell + bile) and cellular accumulation of TCA,[5],significantly decreased
same,Hepatocyte concentration relative to medium concentration,[6],20 fold
"Cc1c(C)c2c(c(C)c1O)CCC(C)(COc1ccc(CC3SC(=O)NC3=O)cc1)O2 (stereo not shown) [TGZ, troglitazone]",Effect on CDCA accumulation in hepatocytes,[17],increased
same,Effect on cellular accumulation of TCA,[17],decreased
same,Effect on canalicular efflux of TCA,[2],significantly reduced
CC(C)(C)NC(=O)[C@@H]1CN(Cc2cccnc2)CCN1C[C@@H](O)C[C@@H](Cc1ccccc1)C(=O)N[C@H]1c2ccccc2C[C@H]1O [indivanir],Effect on CGamF accumulation,[7],potently inhibited
"C[C@H](CCC(=O)NCCS(=O)(=O)O)[C@H]1CC[C@H]2[C@@H]3[C@H](O)C[C@@H]4C[C@H](O)CC[C@]4(C)[C@H]3CC[C@]12C [TCDCA, taurochenodeoxycholic acid]","Cellular concentration relative to CDCA, fold lower",[18],~ 100 fold
COC(c1ccccc1)(c1ccccc1)[C@H](Oc1nc(C)cc(C)n1)C(=O)O [ambrisentan],Effect on BEI and apparent biliary clearance of TCA (TCA biliary excretion),[5],minimal inhibitory effects
same,Hepatocyte concentration relative to medium concentration,[6],2 fold
CC#C[C@]1(O)CC[C@H]2[C@@H]3CCC4=CC(=O)CCC4=C3[C@@H](c3ccc(N(C)C)cc3)C[C@@]21C [mifepristone],Effect on canalicular efflux of TCA,[2],minimal effects
"C[C@H](CCC(=O)O)[C@H]1CC[C@H]2[C@@H]3[C@H](O)C[C@@H]4C[C@H](O)CC[C@]4(C)[C@H]3CC[C@]12C [CDCA, chenodeoxycholic acid]",CC50 at 24 h,[19],972 µM
same,CC50 at 24 h,[9],243 µM
same,CC50 at 24 h,[12],568 µM
same,CC50 at 24 h,[13],351 µM
